According to patent publication US6858428B2, “Human and animal cell culture medium containing antithrombin III for suppressing cell death” (Agency of Industrial Science and Technology, priority 1999, dated 2005):

System: hepatoma cell line HepG2
Assay: Survival of hepatoma cell line HepG2 in serum-free culture (viable cell count after 3 days)
Type: cell-based
Settings: for Survival rate: HepG2, DMEM without fetal bovine serum; for Effect in controlling cell death (in words): HepG2, serum-free medium, concentration not given
Protocol: Two mL cell suspension of hepatoma cell line HepG2 dispersed in trypsin (5×10^5 cells) were inoculated on six multi-well plates and pre-culture by using Dulbecco's modified Eagle medium (DMEM) containing 5% fetal bovine serum, 1.6 g/L sodium hydrogencarbonate, 0.584 g/L L-glutamine, and 0.08 g/L kanamycin sulfate at 37° C. in a 5% CO2 gas phase. […] The viable cell count was assayed after 3 days of culture.
(§1) The hepatoma cell line HepG2 was pre-cultured in the same manner as in Example 1. After 1 day, the broth was recovered, the cell surfaces were washed with serum-free medium, and the culture was continued for another 3 days with the addition of medium containing 5%, 0% fetal bovine serum, or 2 mL of fresh medium comprising antithrombin III added in concentrations ranging from 1 to 25 μg/mL to media containing no fetal bovine serum (0%). The viable cell count was assayed after 3 days of culture.
as §1, with “III or any of-various synthetic protease inhibitors given in Table 4” for “III”, “added” for “added in concentrations ranging from 1 to 25 μg/mL”

## CC(=O)N[C@@H](CC(C)C)C(=O)N[C@@H](CC(C)C)C(=O)N[C@H](C=O)CCCNC(=N)N [Leupeptin, reference compound]
Additive 0.5 μg/ml
  Survival rate: 65.5%

## NCCc1ccc(S(=O)(=O)F)cc1 [AEBSF, reference compound]
Additive 50 μg/ml
  Survival rate: 92.2%
  Effect in controlling cell death (in words): effective in controlling cell death

## PDGF-AA: growth factor reported as survival factor
Additive 50 ng/ml
  Survival rate: 54.0%

## α 1-antitrypsin: typical serum protein used for comparison
Additive 150 μg/ml
  Survival rate: 72.7%
  Effect in controlling cell death (in words): virtually no effect in controlling cell death

## Insulin: hormone reported as survival factor
Additive 0.1 μM
  Survival rate: 53.0%

## aFGF: growth factor reported as survival factor
Additive 10 ng/ml
  Survival rate: 59.6%

## Orosomucoide: typical serum protein used for comparison
Additive 48.8 μg/ml
  Survival rate: 61.5%
  Effect in controlling cell death (in words): virtually no effect in controlling cell death

## N=C(N)c1ccc(CS(=O)(=O)F)cc1 [APMSF, reference compound]
Additive 40 μg/ml
  Survival rate: 74.0%

## Cc1ccc(S(=O)(=O)N[C@@H](CCCCN)C(=O)CCl)cc1 [TLCK, reference compound]
Additive 50 μg/ml
  Survival rate: 89.3%
  Effect in controlling cell death (in words): effective in controlling cell death

## IGF-1: growth factor reported as survival factor
Additive 50 ng/ml
  Survival rate: 45.3%

## bFGF: growth factor reported as survival factor
Additive 10 ng/ml
  Survival rate: 55.2%

## Transferrin: typical serum protein used for comparison
Additive 150 μg/ml
  Survival rate: 62.8%
  Effect in controlling cell death (in words): virtually no effect in controlling cell death
